Assay results as given in US20150111864A1, “CRYSTALLINE FORM OF A BETA-LACTAMASE INHIBITOR” (Cubist Pharmaceuticals, Inc., priority 2013, published 2015).

Tests used:
[1] = test system: Panel of Isogenic and Clinical Strains Expressing β-Lactamases; test: Standard BLI Potentiation MIC Assay in Combination with Ceftolozane, whole panel; format: cell-based; settings: panel of 24 strains; BLI at 4 μg/mL
Experimental: (§1) The experimental protocol was performed according to Clinical and Laboratory Standards Institute (CLSI) guidelines with modifications as described below (CLSI guidelines can be derived from the CLSI document M07-A9 published in January 2012: “Methods for Dilution Antimicrobial Susceptibility Tests for Bacteria That Grow Aerobically; Approved Standard-Ninth Edition”).
(§2) Frozen glycerol stocks of laboratory engineered, isogenic E. coli strains, which contain cloned β-lactamase expressing plasmids were used to streak for isolated colonies on rich, selective LB agar supplemented with 25 μg/mL tetracycline to maintain the plasmid. All strains were incubated at 37° C. for 18-24 hrs.
(§3) On the day of testing, primary cultures were started by scraping off 5-10 colonies from the TSAB plates containing clinical strains or the tetracycline supplemented LB plates containing engineered strains. The clinical strain material was suspended in ˜5 mL of cation adjusted Mueller Hinton Broth (CAMHB) in 14 mL culture tubes. The engineered strain material was suspended in CAMHB (supplemented with 25 μg/mL tetracycline) in 14 mL culture tubes. All strains were incubated at 37° C. with aeration (200 rpm) for ˜2 hrs until the optical density at 600 nm (OD600) was ≧0.1.
(§4) The two compound components of the assay were each diluted in CAMHB and added to the 96-well broth microdilution assay plates. 50 μL of the β-lactam was added to each well of the assay plate in 2-fold dilutions with final concentrations ranging from 128 to 0.13 μg/mL. 25 μL of the BLI compound was added to all wells in the broth microdilution plates at a final concentration of 4 μg/mL. Inoculum cultures were prepared by standardizing the primary cultures to OD600=0.1 and then adding 20 μL of the adjusted primary culture per 1 mL CAMHB for clinical strains or CAMHB (supplemented with tetracycline at 100 μg/mL) for engineered strains, so that the final inoculum density was ˜10^5 colony forming units per milliliter. Diluted inoculum cultures were used to inoculate 25 μL per well in 96-well broth microdilution assay plates. The final volume of each well was 100 μL and contained a β-lactam at different concentrations, a BLIcompound at 4 μg/mL concentration, the bacterial culture at an OD600 of approximately 0.001 and when necessary tetracycline at 25 μg/mL.
(§5) Plates were incubated for 18-20 hours at 37° C. with aeration (200 rpm). Following incubation, growth was confirmed visually placing plates over a viewing apparatus (stand with a mirror underneath) and then OD600 was measured using a SpectraMax 340PC384 plate reader (Molecular Devices, Sunnyvale, Calif.). Growth was defined as turbidity that could be detected with the naked eye or achieving minimum OD600 of 0.1. […]

[2] = test system: Eco.2843 (DHA-1, isogenic); test: Standard BLI Potentiation MIC Assay in Combination with Ceftolozane; format: cell-based, Escherichia coli; settings: Eco.2843, DHA-1, isogenic; BLI at 4 μg/mL
Experimental: as §1, §2, §3, §4
(§6) Plates were incubated for 18-20 hours at 37° C. with aeration (200 rpm). Following incubation, growth was confirmed visually placing plates over a viewing apparatus (stand with a mirror underneath) and then OD600 was measured using a SpectraMax 340PC384 plate reader (Molecular Devices, Sunnyvale, Calif.). Growth was defined as turbidity that could be detected with the naked eye or achieving minimum OD600 of 0.1. MIC values were defined as the lowest concentration producing no visible turbidity.

[3] = test system: Eco.2845 (OXA-15, isogenic); test: as above; format: cell-based, Escherichia coli; settings: Eco.2845, OXA-15, isogenic; BLI at 4 μg/mL
Experimental: as §1, §2, §3, §4, §6

[4] = test system: Eco.2491 (CMY-2, clinical); test: as above; format: cell-based, Escherichia coli; settings: Eco.2491, CMY-2, clinical; BLI at 4 μg/mL
Experimental: as §1, §2, §3, §4, §6

[5] = test system: Cfr.568 (AmpC, clinical); test: as above; format: cell-based, Citrobacter spp; settings: Cfr.568, AmpC, clinical; BLI at 4 μg/mL
Experimental: as §1, §2
(§7) On the day of testing, primary cultures were started by scraping off 5-10 colonies from the TSAB plates containing clinical strains or the tetracycline supplemented LB plates containing engineered strains. […]
as §5

[6] = test system: Pae.2863 (AmpC de-repress, clinical); test: as above; format: cell-based, Pseudomonas aeruginosa; settings: Pae.2863, AmpC de-repress, clinical; BLI at 4 μg/mL
Experimental: as §1, §2, §3, §4, §6

[7] = test system: Pae.2757 (AmpC over-expn, clinical); test: as above; format: cell-based, Pseudomonas aeruginosa; settings: Pae.2757, AmpC over-expn, clinical; BLI at 4 μg/mL
Experimental: as §1, §2, §3, §4, §6

[8] = test system: Pae.2885 (AmpC, clinical); test: as above; format: cell-based, Pseudomonas aeruginosa; settings: Pae.2885, AmpC, clinical; BLI at 4 μg/mL
Experimental: as §1, §2, §3, §4, §6

[9] = test system: Ecl.569 (AmpC, clinical); test: as above; format: cell-based, Enterobacter spp; settings: Ecl.569, AmpC, clinical; BLI at 4 μg/mL
Experimental: as §1, §2, §7, §5

[10] = test system: Eco isogenic strain expressing P99; test: Synergy MIC (sMIC) assay; format: cell-based, Escherichia coli; settings: β-Lactam CXA-101 at 4 μg/mL
Experimental: (§8) The synergy MIC (sMIC) assay determines the concentration of the BLI required to potentiate the activity of a fixed concentration of a β-lactam antibiotic against β-lactamase producing bacterial strains. The experimental protocol was performed according to Clinical and Laboratory Standards Institute (CLSI) guidelines with modifications as described below (CLSI guidelines can be derived from the CLSI document M07-A9 published in January 2012: “Methods for Dilution Antimicrobial Susceptibility Tests for Bacteria That Grow Aerobically; Approved Standard-Ninth Edition”). The assay wa set-up by serially diluting the BLI across 11 of the 12 wells in each row of a 96-well broth microdilution assay plate, adding the β-lactam at a fixed concentration to all wells in the assay plate, inoculating the assay plate with bacterial strains, and determining the lowest concentration of BLI required to inhibit overnight bacterial growth.
as §2
(§9) On the day of testing, primary cultures were started by scraping off 5-10 colonies from the TSAB plates containing clinical strains or the tetracycline supplemented LB plates containing engineered strains. The clinical strain material was suspended in ˜5 mL of cation adjusted Mueller Hinton Broth (CAMHB) in 14 mL culture tubes. The engineered strain material was suspended in CAMHB (supplemented with tetracycline at 25 μg/mL) in 14 mL culture tubes. All strains were incubated at 37° C. with aeration (200 rpm) for ≧2 hrs until the OD600 was ≧0.1.
(§10) The two compound components of the assay were each prepared in CAMHB and added to the 96-well broth microdilution assay plates. 50 μL of the BLI was added to each well of the assay plate in 2-fold dilutions with final concentrations ranging from 128 to 0.13 μg/mL. 25 μL of the β-lactam was added to all wells in the broth microdilution plates at a final concentration of 4 μg/mL. Inoculum cultures were prepared by standardizing the primary cultures to OD600=0.1 and then adding 20 μL of the adjusted primary culture per 1 mL CAMHB for clinical strains or CAMHB (supplemented with tetracycline at 100 μg/mL) for isogenic strains, so that the final inoculum density was ˜10^5 colony forming units per milliliter. Diluted inoculum cultures were used to inoculate 25 μL per well in 96-well broth microdilution assay plates. The final volume of each well was 100 μL and contained a BLI at different concentrations, a β-lactam at 4 μg/mL concentration, the bacterial culture at an OD600 of approximately 0.001 and when necessary tetracycline at 25 ug/mL.
as §6, with “sMIC” for “MIC”, “turbidity. […]” for “turbidity.”

[11] = test system: Eco isogenic strain, β-Lactamase none; test: Synergy MIC (sMIC) assay; format: cell-based, Escherichia coli; settings: β-Lactam none
Experimental: as §8, §2, §9, §10
as §6, with “sMIC” for “MIC”, “turbidity. […]” for “turbidity.”

[12] = test system: Eco isogenic strain expressing OXA-15; test: Synergy MIC (sMIC) assay; format: cell-based, Escherichia coli; settings: β-Lactam CXA-101 at 4 μg/mL; OXA-15, isogenic Eco
Experimental: as §8, §2, §9, §10
as §6, with “sMIC” for “MIC”, “turbidity. […]” for “turbidity.”

[13] = test system: Eco isogenic strain expressing CTX-M-15; test: Synergy MIC (sMIC) assay; format: cell-based, Escherichia coli; settings: β-Lactam CXA-101 at 4 μg/mL; CTX-M-15, isogenic Eco
Experimental: as §8, §2, §9, §10
as §6, with “sMIC” for “MIC”, “turbidity. […]” for “turbidity.”

[14] = test system: Eco isogenic strain expressing SHV-12; test: Synergy MIC (sMIC) assay; format: cell-based, Escherichia coli; settings: β-Lactam CXA-101 at 4 μg/mL; SHV-12, isogenic Eco
Experimental: as §8, §2, §9, §10
as §6, with “sMIC” for “MIC”, “turbidity. […]” for “turbidity.”

(2S,5R)-2-(5-(3-aminopropyl)-1,3,4-oxadiazol-2-yl)-7-oxo-1,6-diazabicyclo[3.2.1]octan-6-yl hydrogen sulfate [ψ]
MIC50 of Ceftolozane in combination with BLI [1]: A (A = 0.25-0.5 μg/mL)
MIC90 of Ceftolozane in combination with BLI [1]: B (B = 1-2 μg/mL)
MIC of Ceftolozane in combination with BLI [2]: AA (AA = <0.25 μg/mL)
MIC of Ceftolozane in combination with BLI [3]: B (B = 1-2 μg/mL)
MIC of Ceftolozane in combination with BLI [4]: AA (AA = <0.25 μg/mL)
MIC of Ceftolozane in combination with BLI [5]: A (A = 0.25-0.5 μg/mL)
MIC of Ceftolozane in combination with BLI [6]: B (B = 1-2 μg/mL)
MIC of Ceftolozane in combination with BLI [7]: B (B = 1-2 μg/mL)
MIC of Ceftolozane in combination with BLI [8]: A (A = 0.25-0.5 μg/mL)
MIC of Ceftolozane in combination with BLI [9]: A (A = 0.25-0.5 μg/mL)
sMIC [10]: B (B = 1-2 μg/mL)
sMIC [11]: D (D = 16-32 μg/mL)
sMIC [12]: B (B = 1-2 μg/mL)
sMIC [13]: A (A = 0.25-0.5 μg/mL)
sMIC [14]: B (B = 1-2 μg/mL)
